According to BindingDB's records for doi:10.1016/j.bbrc.2004.06.020 (Chosun University, 2004):

Assay: TP_TRANSPORTER: drug resistance (vincristine) in AML-2/D100 cells

SMILES	IC50
O=c1cc(-c2ccc(O)c(O)c2)oc2cc(O)cc(O)c12 [2-(3,4-dihydroxyphenyl)-5,7-dihydroxy-4H-chromen-4-one]	19600 nM
COc1ccc2oc(-c3ccc(OC)c(OC)c3)c(OC)c(=O)c2c1	1900 nM
COc1ccc(-c2oc3cc(O)ccc3c(=O)c2O)cc1OC	6300 nM
COc1ccc(-c2cc(=O)c3c(OC)cc(OC)cc3o2)cc1 [TRIMETHYLAPIGENIN]	1400 nM
COc1cc(OC)c2c(=O)cc(-c3cc(OC)c(OC)c(OC)c3)oc2c1	400 nM
COc1cc(-c2oc3cc(O)cc(O)c3c(=O)c2O)cc(OC)c1OC	3200 nM
COc1ccc(-c2cc(=O)c3ccccc3o2)cc1OC	1200 nM
COc1ccc(-c2cc(=O)c3c(OC)c(OC)c(OC)cc3o2)cc1OC [2-(3,4-dimethoxyphenyl)-5,6,7-trimethoxy-4H-chromen-4-one]	3200 nM
COc1ccc2c(=O)cc(-c3ccc(OC)c(OC)c3)oc2c1	1200 nM
COc1cc(-c2cc(=O)c3c(OC)c(OC)c(OC)cc3o2)cc(OC)c1OC	900 nM
